Laboratory results taken from PubChem BioAssay (NCI).
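96-well plates; 48 h exposure; 5 concentrations. Endpoints by linear interpolation between flanking doses. Not reached: highest tested concentration assigned. TGI: concentration producing complete growth inhibition.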

How the values were obtained:
Experiment in all cases: NCI-60 cell line screen, 48 h
NCI-H460 lung = test system: NCI-H460 lung
KM12 colon = test system: KM12 colon
NCI-H226 lung = test system: NCI-H226 lung
COLO 205 colon = test system: COLO 205 colon
SNB-75 CNS = test system: SNB-75 CNS
SF-539 CNS = test system: SF-539 CNS
LOX IMVI melanoma = test system: LOX IMVI melanoma
MOLT-4 leukemia = test system: MOLT-4 leukemia
UACC-62 melanoma = test system: UACC-62 melanoma
CCRF-CEM leukemia = test system: CCRF-CEM leukemia
EKVX NSCLC = test system: EKVX NSCLC
HCT-15 colon = test system: HCT-15 colon
HS 578T breast = test system: HS 578T breast
K-562 leukemia = test system: K-562 leukemia
NCI/ADR-RES ovarian = test system: NCI/ADR-RES ovarian
SF-268 CNS = test system: SF-268 CNS
MDA-MB-435 = test system: MDA-MB-435
HCC-2998 colon = test system: HCC-2998 colon
SK-MEL-5 melanoma = test system: SK-MEL-5 melanoma
SK-MEL-28 melanoma = test system: SK-MEL-28 melanoma
PC-3 prostate = test system: PC-3 prostate
HL-60(TB) leukemia = test system: HL-60(TB) leukemia
M14 melanoma = test system: M14 melanoma
UACC-257 melanoma = test system: UACC-257 melanoma
BT-549 breast = test system: BT-549 breast
MCF7 breast = test system: MCF7 breast
OVCAR-4 ovarian = test system: OVCAR-4 ovarian
OVCAR-3 ovarian = test system: OVCAR-3 ovarian
UO-31 renal = test system: UO-31 renal
SK-MEL-2 melanoma = test system: SK-MEL-2 melanoma
DU-145 prostate = test system: DU-145 prostate
OVCAR-8 ovarian = test system: OVCAR-8 ovarian
A498 renal = test system: A498 renal
ACHN renal = test system: ACHN renal
SR leukemia = test system: SR leukemia
T-47D breast = test system: T-47D breast
MALME-3M melanoma = test system: MALME-3M melanoma
CAKI-1 renal = test system: CAKI-1 renal
SN12C renal = test system: SN12C renal
RPMI-8226 leukemia = test system: RPMI-8226 leukemia
OVCAR-5 ovarian = test system: OVCAR-5 ovarian
SF-295 CNS = test system: SF-295 CNS
HOP-92 NSCLC = test system: HOP-92 NSCLC
MDA-N = test system: MDA-N
RXF 393 renal = test system: RXF 393 renal
TK-10 renal = test system: TK-10 renal
SNB-19 CNS = test system: SNB-19 CNS
786-0 renal = test system: 786-0 renal
IGROV1 ovarian = test system: IGROV1 ovarian
NCI-H522 lung = test system: NCI-H522 lung
MDA-MB-231 breast = test system: MDA-MB-231 breast
HCT-116 colon = test system: HCT-116 colon
SW-620 colon = test system: SW-620 colon
A549 NSCLC = test system: A549 NSCLC
U251 CNS = test system: U251 CNS
SK-OV-3 ovarian = test system: SK-OV-3 ovarian
HT29 colon = test system: HT29 colon
NCI-H23 lung = test system: NCI-H23 lung
HOP-62 NSCLC = test system: HOP-62 NSCLC

Measured: TGI

Cc1c(C)c2c(c(N)c1C#N)C(=O)N(NC(=O)c1ccccc1)C2=O
> 100 µM: NCI-H460 lung | KM12 colon | NCI-H226 lung | COLO 205 colon | SNB-75 CNS | SF-539 CNS | LOX IMVI melanoma | MOLT-4 leukemia | UACC-62 melanoma | CCRF-CEM leukemia | EKVX NSCLC | HCT-15 colon | HS 578T breast | K-562 leukemia | NCI/ADR-RES ovarian | SF-268 CNS | MDA-MB-435 | HCC-2998 colon | SK-MEL-5 melanoma | SK-MEL-28 melanoma | PC-3 prostate | HL-60(TB) leukemia | M14 melanoma | UACC-257 melanoma | BT-549 breast | MCF7 breast | OVCAR-4 ovarian | OVCAR-3 ovarian | UO-31 renal | SK-MEL-2 melanoma | DU-145 prostate | OVCAR-8 ovarian | A498 renal | ACHN renal | SR leukemia | T-47D breast | MALME-3M melanoma | CAKI-1 renal | SN12C renal | RPMI-8226 leukemia | OVCAR-5 ovarian | SF-295 CNS | HOP-92 NSCLC | MDA-N | RXF 393 renal | TK-10 renal | SNB-19 CNS | 786-0 renal | IGROV1 ovarian | NCI-H522 lung | MDA-MB-231 breast | HCT-116 colon | SW-620 colon | A549 NSCLC | U251 CNS

CC(=O)N=C1N(/C=C2\C(=O)Oc3ccccc3C2=O)C(=O)/C(=C/c2cccc(Cl)c2Cl)N1C
84.6 µM: RXF 393 renal
74 µM: COLO 205 colon
57.8 µM: SNB-75 CNS
34.4 µM: M14 melanoma
> 100 µM: KM12 colon | LOX IMVI melanoma | MOLT-4 leukemia | UACC-62 melanoma | CCRF-CEM leukemia | EKVX NSCLC | SF-268 CNS | MDA-MB-435 | SK-MEL-28 melanoma | PC-3 prostate | HL-60(TB) leukemia | UACC-257 melanoma | MCF7 breast | DU-145 prostate | T-47D breast | MALME-3M melanoma | NCI-H23 lung | SN12C renal | OVCAR-5 ovarian | SF-295 CNS | MDA-N | 786-0 renal | IGROV1 ovarian | NCI-H522 lung | HCT-116 colon | SW-620 colon | A549 NSCLC | U251 CNS
32.2 µM: SK-MEL-5 melanoma
44.3 µM: OVCAR-8 ovarian
27.7 µM: SF-539 CNS
32.5 µM: HCT-15 colon
34.3 µM: ACHN renal
26.1 µM: HS 578T breast
86.4 µM: MDA-MB-231 breast
9.38 µM: HOP-92 NSCLC
21.1 µM: A498 renal
65.8 µM: CAKI-1 renal
49.1 µM: HT29 colon
39.4 µM: SK-OV-3 ovarian
20 µM: OVCAR-3 ovarian
60.4 µM: SK-MEL-2 melanoma
75.3 µM: BT-549 breast
62 µM: NCI/ADR-RES ovarian
54.6 µM: SR leukemia
31.4 µM: HCC-2998 colon
63.3 µM: K-562 leukemia
54.4 µM: HOP-62 NSCLC
52.5 µM: RPMI-8226 leukemia
94.2 µM: NCI-H226 lung
